Consider four compounds from US8772344B2, “Pharmaceutical composition for inhibiting osteoclast growth” (National Defense Medical Center, priority 2011, dated 2014).

Structures are written as SMILES.

In assay [1] the test system is osteoclasts from bone marrow-derived macrophages. The assay can be described thus: Osteoclast formation from bone marrow-derived macrophages (M-CSF and RANKL), TRAP staining and count of multinucleated cells. It counts as cell-based, DBA/1J mice. The following applies: for inhibiting osteoclasts grown (observation of plates, FIG. 2A) / numbers of osteoclasts as a function of concentration (FIG. 3): bone marrow-derived macrophages; for inhibiting osteoclasts grown (observation of plates, FIG. 2A): 10 nM, 15 nM and 20 nM, effect positive proportional to the concentration; for numbers of osteoclasts as a function of concentration (FIG. 3): compared to the contrast containing M-CSF and RANKL only; for effect for inhibiting osteoclast growth: comparison among the nine compounds of table 1, cell system not stated. The method, then: Bone marrow cells (BMCs) from DBA/1J mice were obtained for osteoclast progenitor cell preparation. The BMCs were isolated from the tibias and femurs of 8-wk-old male mice by flushing the bone marrow cavity with PBS. The cells were then centrifuged at 1000 g for 10 min and exposed to 5 ml of hypotonic ACK buffer ([…], and 0.1 mM EDTA, (pH 7.4)) at room temperature for […] to remove the red blood cells. They were incubated with α-MEM (Gibco BRL) containing penicillin (100 U/ml), streptomycin (100 μg/ml) and 10% heat-inactivated FBS for 12 hr to separate the floating and adherent cells. The floating cells were collected, suspended in α-MEM, counted, seeded onto a 96-well plate at 4×10^4 cells/well, and cultured in α-MEM in the presence of 30 ng/ml M-CSF for 3 days to form macrophage-like osteoclast precursor cells. […] On day 3, the medium was replaced with fresh medium containing M-CSF, RANKL and P. amboinicus.
(§1) TRAP staining was performed as described Han et al. 2007. Briefly, cells were washed with PBS and fixed with 3.7% formaldehyde for 30 min. After washing with PBS, cells were incubated at 37 in a humid and light-protected incubator for 1 hr in the reaction mixture of the Leukocyte Acid Phosphatase Assay kit (Cat. 387, Sigma), as directed by the manufacturer. Cells were washed three times with distilled water and TRAP-positive multinucleated cells containing five or more nuclei were counted under a light microscope. To measure TRAP activity, cells were lysed in 150λ of 0.2% Triton X-100 in PBS, RT for 15 min and then incubated with 100λ of phosphatase substrate solution kit (Cat. CS0740, Sigma) at 37 for 30 min. After incubation, the enzyme reaction mixture was transferred to another plate and the reaction was stopped with 100λ of 0.5N NaOH. Absorbance was measured at 405 nm in a ELISA plate reader, and activity calculated from standard curve generated using p-nitrophenol standards. TRAP activity was normalized to total protein (determined by the BCA assay (Cat. 23225, PIERCE)) as well as to total number of nuclei counted after TRAP and hematoxylin staining of a second, identical 96-well plate run in conjunction with that used for the TRAP assay.
(§2) Please refer to FIG. 1A and FIG. 1B, bone marrow-derived macrophages were plated in a plate A with M-CSF (FIG. 1A) and a plate B with M-CSF and RANKL (FIG. 1B) and murine RAW264.7 were plated in a plate C (FIG. 1C) and a plate D with RANKL (FIG. 1D) separately. After a period, the growth of the osteoclast in the plate A (plate C) is different from that in the plate B (plate D). According to the abovementioned, M-CSF and RANKL secreted by the osteoblasts will promote the growth of the osteoclast. Therefore, the growth of the osteoclast cannot be seen in the plate A. In the contrast, there are a lot of osteoclasts grown in the plate B.

The test system of another assay is murine RAW264.7. The assay can be described thus: Osteoclast differentiation of murine RAW264.7 cells (RANKL), TRAP staining and count of multinucleated cells. The note with it: for inhibiting osteoclasts grown (observation of plates, FIG. 2B): 10 nM, 15 nM and 20 nM, effect positive proportional to the concentration; for numbers of osteoclasts as a function of concentration (FIG. 4): compared to the contrast containing RANKL only. It is filed as cell-based. On the procedure:
Murine RAW264.7 (murine leukemic monocyte/macrophage), a type of osteoclast progenitor cells. The murine monocyte/macrophage cell line RAW264.7 was cultured with DMEM (Gibco BRL) containing 10% heat-inactivated FBS, penicillin (100 U/ml), and streptomycin (100 μg/ml). All cells were grown in a humidified atmosphere containing 5% CO^2 at 37. To induce osteoclast differentiation, RAW264.7 cells were suspended in α-MEM containing 10% FBS, 2 mM […], 100 U/ml penicillin, and 100 μg/ml streptomycin, seeded at 10^4 cells/dish in a 96-well plate and cultured with 100 ng/ml soluble RANKL for 5 days. The medium was changed on day 3.
as §1, §2

Consider `O=C(Nc1ccc(F)c(F)c1)c1ccccc1O` [Compound 5, N-(3,4-difluorophenyl)-2-hydroxybenzamide], for which, in assay [1], the “inhibiting osteoclasts grown (observation of plates, FIG. 2A)” value is “have the effect for inhibiting osteoclasts grown”; the “numbers of osteoclasts as a function of concentration (FIG. 3)” value (from here on “numbers of osteoclasts … (FIG. 3)”) is reported as “can inhibit osteoclasts grown”; the “effect for inhibiting osteoclast growth” value was “most significant effect for inhibiting osteoclast growth”. In addition, in the assay with murine RAW264.7, the “inhibiting osteoclasts grown (observation of plates, FIG. 2B)” value is reported as “have the effect for inhibiting osteoclasts grown” and the “numbers of osteoclasts as a function of concentration (FIG. 4)” value (“numbers of osteoclasts … (FIG. 4)” below) is recorded as “can inhibit osteoclasts grown”.
Turning to `C#Cc1cccc(NC(=O)c2ccccc2O)c1` [Compound 3, N-(3-ethynylphenyl)-2-hydroxybenzamide], in assay [1], the “inhibiting osteoclasts grown (observation of plates, FIG. 2A)” value is given as “have the effect for inhibiting osteoclasts grown”; the “numbers of osteoclasts … (FIG. 3)” value is listed as “can inhibit osteoclasts grown”; the “effect for inhibiting osteoclast growth” value was “most significant effect for inhibiting osteoclast growth”. Further, in the assay on murine RAW264.7, the “inhibiting osteoclasts grown (observation of plates, FIG. 2B)” value was “have the effect for inhibiting osteoclasts grown” and the “numbers of osteoclasts … (FIG. 4)” value is listed as “can inhibit osteoclasts grown”.
Take `O=C(Nc1ccc(Cl)cc1F)c1ccccc1O` [Compound 6, N-(4-chloro-2-fluorophenyl)-2-hydroxybenzamide]: in assay [1], the “inhibiting osteoclasts grown (observation of plates, FIG. 2A)” value was “have the effect for inhibiting osteoclasts grown”; the “numbers of osteoclasts … (FIG. 3)” value is given as “can inhibit osteoclasts grown”; the “effect for inhibiting osteoclast growth” value is given as “most significant effect for inhibiting osteoclast growth”. In the assay on murine RAW264.7, the “inhibiting osteoclasts grown (observation of plates, FIG. 2B)” value is given as “have the effect for inhibiting osteoclasts grown” and the “numbers of osteoclasts … (FIG. 4)” value is given as “can inhibit osteoclasts grown”.
As for `O=C(Nc1cccc(C(F)(F)F)c1)c1ccccc1O` [Compound 1, 2-hydroxy-N-[3-(trifluoromethyl)phenyl]benzamide], the “effect for inhibiting osteoclast growth” value in assay [1] is on record as “most significant effect for inhibiting osteoclast growth”.
